The source of these data is PubChem BioAssay (NCI).

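Protocol summary: plate cells (96-well), add compound at 5 concentrations, incubate 48 h, interpolate endpoints linearly. TGI: concentration producing complete growth inhibition.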

Common to all, as to assay: NCI anticancer screen, dose series, 48 h
Test [1] relates to SR leukemia.
Test [2] deals with CCRF-CEM leukemia.
Test [3] has as its system NCI/ADR-RES ovarian.
In test [4] the test system is SN12C renal.
In test [5] the test system is PC-3 prostate.
The subject of test [6] is K-562 leukemia.
Test [7] relates to EKVX NSCLC.
Test [8] relates to 786-0 renal.
Test [9] relates to ACHN renal.
Test [10] deals with HOP-62 NSCLC.
Test [11] has as its system SNB-19 CNS.

In the case of `O=C(N/N=C/c1ccc(Cl)cc1)c1c(Cl)c(Cl)c(Cl)c(Cl)c1-c1nc2ccccc2[nH]1`, the TGI in test [1], in test [2], in test [3], in [4], in [5] and in [6] was over 100 µM throughout. Further, the TGI in test [7], in [8], in [9], in [10] and in test [11] was over 100 µM in each case.
Consider `CC1=Nc2ccccc2OC(C)=C1N=Nc1ccc2nc(C)[nH]c2c1`, for which the TGI in test [1], in [2], in test [3], in [4], in test [5] and in [6] was over 100 µM in each case. Also, the TGI in test [7], in [8], in test [9], in test [10] and in [11] was over 100 µM each time.
Consider `O=C(/C=C/c1ccc2c(c1)OCO2)c1ccc(O)cc1`, for which the TGI is 4.96 µM in [1]; 35.3 µM in test [2]; 3.52 µM in [3]; 29.1 µM in test [4]; 29.4 µM in [5]; 27.1 µM in test [6]. Besides, the TGI is 30.3 µM in test [7]; 3.01 µM in test [8]; 59.4 µM in test [9]; 66.1 µM in test [10]; 30.5 µM in test [11].
For the compound `CCCCOC(=O)Nc1ccc(S(=O)(=O)Nc2ccccc2Cl)cc1`, the TGI in test [1] turned out to be 26.8 µM; in test [2], 57.3 µM; in test [3], 43.4 µM; in test [4], 48.8 µM; in test [5] it was 58.4 µM; in [6] it was 43.1 µM. In addition, the TGI in [7] came out at 57 µM; in [8], 41.8 µM; in test [9] it was 65.8 µM; in test [10] it was 37.7 µM; in [11] it was 49.8 µM.
Regarding `Oc1ccc2c(c1)c1c(n2CCN2CCOCC2)-c2ccccc2CC1`, the TGI in test [1] is 91.5 µM; in test [2], over 100 µM; in test [3], 74.2 µM; in [4] it was 95.9 µM; in test [5], over 100 µM; in [6], over 100 µM. Also, the TGI in [7] was 92.5 µM; in test [8], over 100 µM; in test [9] it was over 100 µM; in [10], 59.2 µM; in test [11] it was over 100 µM.
As to `O=C1CCCCC1CN1CCCCC1` (stereo not drawn), the TGI in test [1], in test [2], in test [3], in test [4], in test [5] and in test [6] was over 100 µM each time. In addition, the TGI in test [7], in test [8], in test [9], in [10] and in test [11] was over 100 µM throughout.
On to `Cc1ccccc1C(=N)c1ccccc1Cc1cccc2ccccc12`, for which the TGI in test [1] is 41.2 µM; in test [2] it was 42.7 µM; in test [3] it was 88.6 µM; in [4] it was 39.5 µM; in [5], over 100 µM; in test [6], over 100 µM. The TGI in test [7] was over 100 µM; in test [8] it was 41 µM; in [9], over 100 µM; in test [10] it was 43.5 µM; in test [11], over 100 µM.
As to `O=[N+]([O-])c1ccc2[nH]nc(OCc3ccccc3Cl)c2c1`, the TGI in [1], in [2], in test [3], in [4], in [5] and in test [6] was over 100 µM throughout. In addition, the TGI in [7] was over 100 µM; in [8], 59.4 µM; in [9] it was 62.1 µM; in test [10], over 100 µM; in test [11], over 100 µM.
As to `O=C(/C=C/c1ccc2c(c1)OCO2)Cc1nc2ncccc2[nH]c1=O`, the TGI in [1], in test [2], in test [3], in test [4], in [5] and in test [6] was over 100 µM in each case. Further, the TGI in test [7], in test [8], in test [9], in [10] and in test [11] was over 100 µM throughout.
For `CCOC(=O)N1CCN(Cc2cc(=O)n3ccc(C)cc3n2)CC1`, the TGI in test [1], in [2], in [3], in [4], in [5] and in test [6] was over 100 µM throughout. The TGI in test [7], in test [8], in test [9], in test [10] and in [11] was over 100 µM in each case.
Take `Nn1c(Nc2ccc(S(=O)(=O)Nc3ncccn3)cc2)nnc(/C=C/c2c(O)ccc3ccccc23)c1=O`: the TGI in [1] was 66.8 µM; in test [2], 47.9 µM; in test [3], 79.7 µM; in test [4] it was over 100 µM; in [5] it was over 100 µM; in test [6], over 100 µM. For the same compound, the TGI in [7] is 69.6 µM; in test [8] it was 73.6 µM; in [9], 67.3 µM; in test [10], over 100 µM; in test [11], over 100 µM.
For the compound `CCOC(=O)c1c(CN2CCCC2)n(-c2ccccc2)c2cc(Br)c(O)cc12`, the TGI worked out at 42.8 µM in [1]; 34.8 µM in test [2]; 57.9 µM in test [3]; 30.2 µM in test [4]; 48.5 µM in test [5]; 41.2 µM in test [6]. The TGI in test [7] came out at 39.7 µM; in test [8], 31 µM; in test [9], 44.9 µM; in test [10], 26.7 µM; in test [11] it was 33.3 µM.
Take `c1ccc2c3[nH]c(c2c1)=Nc1ccc(cc1)-c1nc2cc(ccc2o1)N=c1[nH]c(c2ccccc12)=Nc1ccc2nc(oc2c1)-c1ccc(cc1)N=3`: the TGI in test [1], in test [2], in test [3], in [4], in test [5] and in test [6] was over 100 µM throughout. In addition, the TGI in test [7], in [8], in test [9], in [10] and in test [11] was over 100 µM in each case.
